Consider 19 compounds from ChEMBL document CHEMBL4219272, “Synthesis and biological evaluation of curcumin derivatives modified with α-amino boronic acid as proteasome inhibitors” (Bioorg Med Chem Lett, 2018).

Data set [1] can be described thus: Aqueous solubility of the compound. The format is physicochemical. Conditions: buffer.
Data set [2] concerns HCT-116. Nature of the data set: Antiproliferative activity against human HCT116 cells after 72 hrs by MTT assay. Format: functional, cell-based. Conditions: HCT-116, 72 h. For orientation: Tetrazolium dyes change colour on reduction, which living cells bring about.
The test system of another data set is A549. In words: Antiproliferative activity against human A549 cells after 72 hrs by MTT assay. The format is functional, cell-based. Conditions: A549, 72 h.
In another data set the test system is MDA-MB-231. Nature of the data set: Antiproliferative activity against human MDA-MB-231 cells after 72 hrs by MTT assay. The format is functional, cell-based. The note with it: MDA-MB-231, 72 h.
Data set [3] is described as follows: Antiproliferative activity against human 95-D cells after 72 hrs by MTT assay. The format is functional, cell-based.
For data set [4], the target named is T1, Proteasome Macropain subunit MB1 (Homo sapiens, UniProt P28074).
T1 sequence (P28074 whole entry): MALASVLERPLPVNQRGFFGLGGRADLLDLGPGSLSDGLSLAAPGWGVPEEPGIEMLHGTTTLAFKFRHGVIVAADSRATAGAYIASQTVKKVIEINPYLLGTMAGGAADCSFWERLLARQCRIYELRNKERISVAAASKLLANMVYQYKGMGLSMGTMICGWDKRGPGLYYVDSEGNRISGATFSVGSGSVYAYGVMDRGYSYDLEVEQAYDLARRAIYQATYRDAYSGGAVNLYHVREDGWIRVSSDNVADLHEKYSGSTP
In words: Inhibition of chymotrypsin-like activity of 20S proteasome in human K562 cells using Suc-LLVYaminoluciferin as substrate after 2 hrs by luminescence assay. Format: cell-based.

In data set [5] the target is T1, Proteasome Macropain subunit MB1. In words: Inhibition of chymotrypsin-like activity of 20S proteasome in human PC3 cell extract using Suc-LLVYaminoluciferin as substrate after 2 hrs.
Data set [6] shares this target. In words: Inhibition of chymotrypsin-like activity of 20S proteasome in human LNCAP cell extract using Suc-LLVYaminoluciferin as substrate after 2 hrs.
The next data set concerns LNCaP. Nature of the data set: Growth inhibition of human LNCAP cells at 5 to 10 uM after 48 hrs by MTT assay relative to control. The format is functional.
The test system of data set [7] is HCT-116. In words: Antiproliferative activity against human HCT116 cells after 36 hrs by XTT assay. Format: functional, cell-based. Conditions: HCT-116, 36 h.

The structures appear in SMILES notation. pIC50: −log10 of the molar value.

Regarding `O=C1/C(=C/c2ccc([N+](=O)[O-])cc2)CNC/C1=C\c1ccc([N+](=O)[O-])cc1`, the solubility result in [1] is “Insoluble”. Regarding `O=C1/C(=C/c2ccc(F)cc2)CNC/C1=C\c1ccc(F)cc1`, the solubility result in data set [1] is “Soluble”. Turning to `CCC[C@H](NC(=O)N1C/C(=C\c2ccc(F)cc2)C(=O)/C(=C/c2ccc(F)cc2)C1)B1OC(C)(C)C(C)(C)O1`, the pIC50 (commonly the IC50 on a negative log10 scale, so that one unit is a factor of ten) in the data set on HCT-116 [2] is 6.11. For the compound `CC(C)C[C@H](NC(=O)N1C/C(=C\c2ccc(F)cc2)C(=O)/C(=C/c2ccc(F)cc2)C1)B1OC(C)(C)C(C)(C)O1`, the pIC50 in the data set on A549 is 5.30; in the data set on MDA-MB-231, 5.48; in data set [3], 5.95; with HCT-116 [2], 6.07 to 6.08.

In turn, `CC1(C)OB([C@H](CCc2ccccc2)NC(=O)N2C/C(=C\c3ccc(F)cc3)C(=O)/C(=C/c3ccc(F)cc3)C2)OC1(C)C` had a pIC50 with HCT-116 [2] of 5.98. On the same count and under the same terms, then `CC(C)C[C@H](NC(=O)N1CCN(C(=O)N2C/C(=C\c3ccc(F)cc3)C(=O)/C(=C/c3ccc(F)cc3)C2)CC1)B1OC(C)(C)C(C)(C)O1`, with 5.79; and `CC1(C)OB([C@@H](NC(=O)N2C/C(=C\c3ccc(F)cc3)C(=O)/C(=C/c3ccc(F)cc3)C2)C2CCCCC2)OC1(C)C`, with 6.04. On the same count and under the same terms, then `CC(C)C[C@H](NC(=O)[C@@H](NC(=O)N1C/C(=C\c2ccc(F)cc2)C(=O)/C(=C/c2ccc(F)cc2)C1)C(C)C)B1OC(C)(C)C(C)(C)O1`, with 6.27. On the same count and under the same terms, the result for `CC(C)C[C@H](NC(=O)[C@H](Cc1ccccc1)NC(=O)N1C/C(=C\c2ccc(F)cc2)C(=O)/C(=C/c2ccc(F)cc2)C1)B1OC(C)(C)C(C)(C)O1` reads 6.70. `CC(C)C[C@H](NC(=O)[C@H](Cc1ccc2ccccc2c1)NC(=O)N1C/C(=C\c2ccc(F)cc2)C(=O)/C(=C/c2ccc(F)cc2)C1)B1OC(C)(C)C(C)(C)O1` had a pIC50 in the data set with HCT-116 [2] of 6.76.

On to `CC(C)C[C@H](NC(=O)[C@H](CC(C)C)NC(=O)N1C/C(=C\c2ccc(F)cc2)C(=O)/C(=C/c2ccc(F)cc2)C1)B1OC(C)(C)C(C)(C)O1`, for which, in the data set on HCT-116 [2], the negative-log IC50 (pIC50) is 6.19. Still for that read-out and setting: the result for `CC(C)C[C@H](NC(=O)CNC(=O)N1C/C(=C\c2ccc(F)cc2)C(=O)/C(=C/c2ccc(F)cc2)C1)B1OC(C)(C)C(C)(C)O1` reads 6.43; that for `CC1(C)OB([C@H](Cc2ccccc2)NC(=O)N2C/C(=C\c3ccc(F)cc3)C(=O)/C(=C/c3ccc(F)cc3)C2)OC1(C)C`, 6.22; that for `CC(C)(C)[C@H](NC(=O)N1C/C(=C\c2ccc(F)cc2)C(=O)/C(=C/c2ccc(F)cc2)C1)B1OC(C)(C)C(C)(C)O1`, 6.08.

In the data set with HCT-116 [2], `CC[C@H](NC(=O)N1C/C(=C\c2ccc(F)cc2)C(=O)/C(=C/c2ccc(F)cc2)C1)B1OC(C)(C)C(C)(C)O1` showed a pIC50 of 6.06. For the compound `CC(C)C[C@H](NC(=O)[C@H](Cc1ccccc1)NC(=O)N1C/C(=C\c2ccc(F)cc2)C(=O)/C(=C/c2ccc(F)cc2)C1)B(O)O`, the pIC50 was 6.69 in the data set with HCT-116 [2] and 6.08 in data set [4]. The compound `CC(C)[C@H](NC(=O)N1C/C(=C\c2ccc(F)cc2)C(=O)/C(=C/c2ccc(F)cc2)C1)B1OC(C)(C)C(C)(C)O1` showed a pIC50 in the data set with HCT-116 [2] of 6.04. Turning to `COc1cc(/C=C/C(=O)CC(=O)/C=C/c2ccc(OC(=O)[C@@H](N)C(C)C)c(OC)c2)ccc1OC(=O)[C@@H](N)C(C)C`, the pIC50 is 5.00 in data set [5], 5.00 in data set [6] and under 5.30 in data set [4]. Also, the “growth inhibition (GI)” value in the data set on LNCaP is recorded as 38 - 71%. Turning to `COc1cc(/C=C/C(=O)CC(=O)/C=C/c2ccc(O)c(OC)c2)ccc1O` [CURCUMIN], the negative logarithm of the IC50 (pIC50) with HCT-116 [7] is 4.30; in the data set with A549, under 5.00; in the data set with MDA-MB-231, under 5.00; in [3], under 5.00; with HCT-116 [2], 4.96.
